Laboratory results as given in patent US11390625B2, “Aryl-phosphorus-oxygen compound as EGFR kinase inhibitor” (Chia Tai Tianqing Pharmaceutical Group Co., Ltd., priority 2017, dated 2022).

Assays:
[1] = tested on: pEGFR Ba/F3 (EGFR Δ19del/T790M/C797S) cells; assay: Cell phosphorylation inhibition experiment, pEGFR Ba/F3 (EGFR Δ19del/T790M/C797S); assay type: cell-based; settings: Ba/F3 EGFR; Ba/F3 cells, EGF stimulated; read-out: Effect on cellular EGFR phosphorylation Ba/F3(Δ19del/T790M/C797S) IC50
Method: The test compounds and reference compounds were diluted with 100% DMSO to 10 mM or 1 mM, and then a gradient dilution was performed by using Echo, 150 nL per well, with a three-fold concentration gradient and a ten-point dose response curve. The final concentration of the compounds was 100 μM or 10 μM. The suspension cells was centrifuged at 1000 rp for 5 minutes, suspend in Hanks' balanced salt solution, and added to a 384-well plate containing the compounds at 10 L/120K/well (the cell density of 1.2×10^7), followed by centrifugation at 1200 rpm for 30 s and incubation at 37° C. for 30 min. 5 μL of EGF (which has been diluted with 0.1% BSA Hanks' balanced salt solution) was added to each well, in which the final concentration of EGF was 1 μM. The plate was centrifuged at 1200 rpm for 30 s and incubated at 37° C. for 20 min. 5 μL of 4× lysis buffer containing blocking solution was added to each well, and then the plate was centrifuged at 1200 rpm for 30 s, and incubated at 37° C. for 30 min.

[2] = Plasma, tumor and lung exposure in mice of the Ba/F3 CDX efficacy experiment; assay type: in vivo; settings: mouse, 15.0 mg/kg/day oral; for concentration at 2 h / Lung, 2 h / Tumor, 2 h: 2 h after administration
Method: On Day 14 after administration to the groups for the efficacy experiment, the plasma was collected from the mice by submandibular blood collection before last administration and 2 hours after last administration, and the plasma samples were collected from the mice at 1 h, 4 h, 8 h and 24 h after administration. About 100 ul of blood was collected each time, placed in an anticoagulation tube, and centrifuged at 8000 rpm for 7 min, to collect plasma, which was stored at −80° C.

[3] = tested on: Ba/F3 (Δ19del/T790M/C797S) xenograft; assay: In vivo efficacy (1): Ba/F3 (Δ19del/T790M/C797S) subcutaneous xenograft (CDX) in BALB/c nude mice; settings: for TGI (the tumor inhibition value): 45 mg/kg oral daily, 13 consecutive days;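 for all read-outs here: female nude mice, dosing begun at mean tumor size near 80–120 mm^3, tumors measured by caliper twice weekly, volume in mm^3 computed as 0.5×long×short diameter squared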
Method: BALB/c nude mice, female, 6-8 weeks old, 18-20 g of body weight, were housed in SPF-grade environment, and each cage was individually ventilated (5 mice per cage). […] A total of 48 mice purchased from Beijing Weitonglihua company were used for the study. Each mouse was implanted with cells at the right flank, for tumor growth. The experiment was started when the average tumor volume reached approximately 80-120 mm^3. […] Tumor volume was measured twice a week with a two-dimensional caliper, measured in mm^3 and calculated by the following formula: V=0.5a×b^2, wherein a and b are the long and short diameters of the tumor, respectively. Antitumor efficacy was determined by dividing the average increase of the tumor volume of the animals treated with the compound by the average increase of the tumor volume of the untreated animals.

[4] = tested on: Ba/F3 (EGFR Δ19del/T790M/C797S) cells; assay: Anti-proliferation experiment on cells (2), Ba/F3 (EGFR Δ19del/T790M/C797S); assay type: cell-based; settings: Ba/F3 EGFR, 72 h; Ba/F3 cells, 3 days; read-out: anti-proliferation effect on cells Ba/F3(Δ19del/T790M/C797S) IC50
Method: The compounds ware transferred to a 384-well plate, with 125 nL of compound per well. […] After 3 days, 25 μL of detection reagent was added. The plate was incubated at room temperature for 10 minutes and then read with Envision.

A431 cells (EGFR WT) = assay: Cell antiproliferation experiment (1), A431 cells, CellTiter Glo; assay type: cell-based; settings: Homo sapiens, A-431, 72 h, read-out: anti-proliferation effect on cells A431 EGFR WT IC50
Method: 1) Cell Culture and Passage
(1) A431 medium: 88% DMEM+10% fetal bovine serum+1% L-glutamine+1% double-antibody
(2) A431 cells were isolated and passaged every 3-4 days, wherein the number of the cells for 3-day passage was 5e6 cells per T75 culture flask, and the number of the cells for 4-day passage was 3e6 cells per T75 culture flask.
2) Day 1: Preparation of Cell Plate
(1) Phosphate buffer, trypsin, and a culture medium were placed in a water bath at 37° C. to preheat.
(2) The original medium was removed from the cell culture flask and washed once with 6 mL of PBS.
(3) 5 mL of phosphate buffer was pipetted into the culture flask to rinse the cells (passage 17), and then the liquid was discarded.
(4) The cell culture flask was added with 3.5 mL of trypsin, and shaken gently, trypsin was removed after fully contact with the cells, and then the culture flask was placed in an incubator containing 5% CO2 at 37° C. for about 1 minute;
(5) The cells were resuspended in 10 mL cell culture medium, and about 0.6 mL of cell suspension was take out for counting (ViCell XR);
(6) The cell suspension was diluted with the medium to the cell density of 5e4 cells per ml, which was required for plating (cell concentration: 2500 cells per well);
(7) 100 μL of phosphate buffer solution was added to each well around the cell plate, while 50 μL of the cell suspension was added to other wells, and the plate was incubated overnight in a incubator containing 5% CO2 at 37° C.
(1) 9 μL of the compound (concentration: 1 mM) was added into a shallow well plate for Echo.
(2) The shallow well plate was centrifuged at 1000 rpm for 10 s and the cell plate was removed from the incubator.
(3) According to the layout of the microplate, the compounds was diluted with a three-fold concentration gradient using Echo, each compound was diluted to 10 concentration gradients and 250 nL of the diluted compounds was respectively added to the cell plate, and then the cell plate was returned to the incubator and further incubated for 3 days.
4) Day 5: Adding CTG and Reading the Plate
(1) After incubation for 72 h, 25 μL of CellTiter Glo was added to each well of the cell plate, followed by shaking the plate for 10 min in the dark.
(2) The plate was read on Envision.
Data analysis: By computer fitting, the corresponding concentration of the compound at 50% inhibition rate was read as the IC50 of the compound for inhibiting cell activity.

Structure (SMILES)	IC50 [1] [nM]	half-life ([2]; BALB/c nude, plasma) [min]	concentration at 2 h ([2]; BALB/c nude, plasma) [µM]	Lung, 2 h [2] [nmol/kg]	Tumor, 2 h [2] [nmol/kg]	Tumor volume Day 0 ([3]; 5 mg/kg/day oral) [mm^3]	Tumor volume Day 2 ([3]; 5 mg/kg/day oral) [mm^3]	Tumor volume Day 5 ([3]; 5 mg/kg/day oral) [mm^3]	Tumor volume Day 8 ([3]; 5 mg/kg/day oral) [mm^3]	Tumor volume Day 10 ([3]; 5 mg/kg/day oral) [mm^3]	Tumor volume Day 12 ([3]; 5 mg/kg/day oral) [mm^3]	Tumor volume Day 13 ([3]; 5 mg/kg/day oral) [mm^3]	Tumor volume Day 0 ([3]; 15 mg/kg/day oral) [mm^3]	Tumor volume Day 2 ([3]; 15 mg/kg/day oral) [mm^3]	Tumor volume Day 5 ([3]; 15 mg/kg/day oral) [mm^3]	Tumor volume Day 8 ([3]; 15 mg/kg/day oral) [mm^3]	Tumor volume Day 10 ([3]; 15 mg/kg/day oral) [mm^3]	Tumor volume Day 12 ([3]; 15 mg/kg/day oral) [mm^3]	Tumor volume Day 13 ([3]; 15 mg/kg/day oral) [mm^3]	TGI (the tumor inhibition value) [3] [%]	other results
COc1cc(N2CCC(N3CCN(C)CC3)CC2)c(C)cc1Nc1ncc(Br)c(Nc2ccc3nccnc3c2P(C)(C)=O)n1 [Compound 34]	19	600	3.55	32533	16667	84	108	212	395	505	748	881	84	76	107	126	176	292	326	101	Tumor volume Day 0 ([3]; 45 mg/kg/day oral): 84 mm^3; Tumor volume Day 2 ([3]; 45 mg/kg/day oral): 56 mm^3; Tumor volume Day 5 ([3]; 45 mg/kg/day oral): 32 mm^3; Tumor volume Day 8 ([3]; 45 mg/kg/day oral): 35 mm^3; Tumor volume Day 10 ([3]; 45 mg/kg/day oral): 42 mm^3; Tumor volume Day 12 ([3]; 45 mg/kg/day oral): 73 mm^3; Tumor volume Day 13 ([3]; 45 mg/kg/day oral): 68 mm^3; IC50 [4]: 22 nM; IC50 (A431 cells (EGFR WT)): 154 nM
CCc1cc(Nc2ncc(Br)c(Nc3ccc4nccnc4c3P(C)(C)=O)n2)c(OC)cc1N1CCC(N2CCN(C)CC2)CC1 [Compound 41]	25	1230	6.99	29567	18567	84	103	203	348	485	707	814	84	68	69	82	115	146	211	109	AUC(0-t) ([2]; BALB/c nude, plasma): 122 µM·h; Tumor volume Day 0 ([3]; 45 mg/kg/day oral): 84 mm^3; Tumor volume Day 2 ([3]; 45 mg/kg/day oral): 47 mm^3; Tumor volume Day 5 ([3]; 45 mg/kg/day oral): 24 mm^3; Tumor volume Day 8 ([3]; 45 mg/kg/day oral): 7 mm^3; Tumor volume Day 10 ([3]; 45 mg/kg/day oral): 4 mm^3; Tumor volume Day 12 ([3]; 45 mg/kg/day oral): 0 mm^3; Tumor volume Day 13 ([3]; 45 mg/kg/day oral): 0 mm^3; IC50 [4]: 9 nM; IC50 (A431 cells (EGFR WT)): 245 nM
